Results from publication PMC9849758, “Chemically diverse activity-based probes with unexpected inhibitory mechanisms targeting trypsin-like serine proteases” (Frontiers in Chemistry, 2023).
“Also recorded” adds a separate entry of the source. Counter-ions that a name gives are not always drawn. Like-named read-outs stand apart in the source and are kept apart here.

Assays:
Thrombin = target: T1, Thrombin (Homo sapiens, UniProt P00734); assay: Kinetic progress curves (kapp, K1, KI*, mechanism); type: biochemical; conditions: for Ki / Thrombin kapp: mean ± SD; for Thrombin kapp: apparent second-order rate constant from progress curves; for Thrombin mechanism of inhibition: defined by the progress curves: slow-binding (Rev.) or irreversible (Irrev.)
T1 construct: purchased R&D
Experimental: Because the compounds described in this paper were previously described as irreversible inhibitors, the IC50 value is inversely correlated with the second-order rate constant of inactivation. For a simple pseudo-first-order inactivation process, the activity after incubation with inhibitor (vi) varies with the inhibitor concentration (i), as described in the following equation: vi=v0·e^−kit where v0 is the activity in the absence of an inhibitor, k is the second-order rate constant of inactivation, and t is the time. The inactivation rate constant was determined from the time course of inhibition.
Kinetic assays were performed in the following manner. The inhibitor was mixed with the substrate, and the buffer solution with the enzyme was added at the time zero. The progress curves show the release of pNA or AMC as a function of time. Initially, no inhibitor is bound to the enzyme, and the tangent to the progress curve (dA/dt) is proportional to the free enzyme concentration. The free enzyme concentration decreases over time due to inhibitor binding kinetics, as described above. Progress curves were recorded in pseudo-first-order conditions ([I]0>>[E]0) and with less than 10% conversion of the substrate during the entire time course. In these conditions, dA/dt decreases exponentially with time. The progress curves were fitted with the integrated rate equation with GraFit7 to yield a value for kobs, a pseudo-first-order rate constant. At=Ao+vs∙t+vi−vs∙1−e^−kobs∙t/kobs where At is the absorbance at time t, A0 is the absorbance at time zero, vi is the initial rate and vs is the velocity at the steady-state.
The apparent second-order rate constant (kapp) was calculated from the slope of the linear part of the plot of kobs vs. the inhibitor concentration ([I]0). In the case of competition between the inhibitor and the substrate, kapp is smaller than the “real” second-order rate constant k discussed above because a certain fraction of the enzyme is present as an enzyme-substrate complex. kapp depends on the substrate concentration used in the experiment, as described by [Lambeir et al. (1996)].
The apparent equilibrium constants were obtained from the following equations, vi/vo=1/1+I/K1; vS/vo=1/1+I/KI* where vi is the initial rate, vs is the steady-state velocity and vo is the uninhibited initial rate.

CatG = target: T2, CatG (Homo sapiens, UniProt P08311); assay: Labeling and detection of recombinant proteases (SDS-PAGE blot, NeutrAvidin-HRP); type: binding; conditions: 1 µM ABP, 100 ng protease, 30 min 37°C, denaturing SDS-PAGE blot
T2 sequence (P08311 21-255): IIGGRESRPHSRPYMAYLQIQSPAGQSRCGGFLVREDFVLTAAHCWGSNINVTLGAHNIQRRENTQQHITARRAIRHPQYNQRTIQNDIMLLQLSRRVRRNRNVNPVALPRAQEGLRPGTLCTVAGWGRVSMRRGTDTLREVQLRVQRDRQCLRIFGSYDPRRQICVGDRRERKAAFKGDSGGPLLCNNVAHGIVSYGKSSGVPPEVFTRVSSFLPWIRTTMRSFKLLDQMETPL
Experimental: (§1) Recombinant proteases (100 ng) were labeled with 1 µM ABP in reaction buffer in a final volume of 40 µL for 30 min at 37°C. After the addition of 4X Laemmli buffer (Bio-Rad, GmbH) supplemented with Bond-Breaker Tris (2-CarboxyEthyl)Phosphine (TCEP) Solution (Thermo Scientific, United States), the samples were heated at 95°C for 5 min and loaded into 4%–20% Mini-Protean TGX precast gels (Bio-Rad, GmbH). After electrophoresis, the proteins were blotted onto nitrocellulose membranes using the Trans-Blot Transfer Turbo System (Bio-Rad). Membranes were incubated with NeutrAvidin-HRP (1:50,000), and bands were visualized with ECL Select Western Blot Detection Reagent (GE Healthcare Life Sciences) by chemiluminescence (Chemidoc XRS; Bio-Rad). The molecular weight of each band was determined with the Image Lab Software v5 (Bio-Rad).
(§2) To further characterize the newly synthesized compounds and their potential to be used as ABPs, nine desthiobiotin probes were used for the labeling and detection of recombinant proteases. The arginine (45b–46b) and the proline-lysine (58b) desthiobiotin probes were used as reference compounds. Whereas the benzyl guanidine (50b, 52b, 54b) and phenyl guanidine probes (55b–57b) were used to determine whether the mechanism of inhibition (reversible or irreversible) is an obstacle to visualize the proteases. Samples of human recombinant proteases (trypsin-3, β-tryptase, and CatG) were incubated with the different probes before electrophoresis and detection with NeutrAvidin-HRP on a Western blot. Figure 7A illustrates the ability of the desthiobiotin probes to indicate the presence of the corresponding trypsin-like enzyme. […] This effect can be explained due to the strong interactions between the active site of the protease and the probes. The high affinity and the slow off-rates were described in Table 5 by the equilibrium constants KI*. Assuming that there is an excess of inhibitor over enzyme, the free inhibitor concentration must be very low, lower than the KI*, in order for the complex to dissociate. Therefore, the high affinity complex E*I survives during the whole process of labeling, gel electrophoresis, and visualization.

Trypsin-3 = target: T3, Trypsin-3 (Homo sapiens, UniProt P35030); assay: as above; type: binding; conditions: 1 µM ABP, 100 ng protease, 30 min 37°C, denaturing SDS-PAGE blot
T3 sequence (P35030 1-304): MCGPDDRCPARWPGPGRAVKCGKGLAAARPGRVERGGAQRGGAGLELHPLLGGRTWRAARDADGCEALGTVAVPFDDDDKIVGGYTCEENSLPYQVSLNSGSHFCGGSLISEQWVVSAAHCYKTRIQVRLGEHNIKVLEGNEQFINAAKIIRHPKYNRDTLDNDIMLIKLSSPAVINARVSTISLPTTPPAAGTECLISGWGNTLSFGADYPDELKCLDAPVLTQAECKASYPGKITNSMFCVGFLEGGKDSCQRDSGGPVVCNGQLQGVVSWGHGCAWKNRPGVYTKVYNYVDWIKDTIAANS
Experimental: as §1, §2

[1] = Thrombin KI*, apparent equilibrium constant of the overall process
[2] = read-out: Thrombin K1, apparent equilibrium constant of the first step of slow-binding
[3] = read-out: Thrombin KI*, apparent equilibrium constant of the overall process
[4] = Thrombin K1, apparent equilibrium constant of the first step of slow-binding

| Compound | Ki (Thrombin; [1]) [nM] | Thrombin kapp (Thrombin) | Thrombin mechanism of inhibition (Thrombin) | labeling of recombinant CatG (CatG) | labeling of recombinant trypsin-3 (Trypsin-3) | Ki (Thrombin; [2]) [nM] | Ki (Thrombin; [3]) [nM] | Ki (Thrombin; [4]) [nM] |
| --- | --- | --- | --- | --- | --- | --- | --- | --- |
| CC(=O)Nc1ccc(OP(=O)(Oc2ccc(NC(C)=O)cc2)C(Cc2ccc(NC(=N)N)cc2)NC(=O)OCCCc2cn(CCOCCOCCOCCNC(=O)CCCCC[C@H]3NC(=O)N[C@H]3C)nn2)cc1 (some centres unmarked) [52b] | 620 ± 80 | 49 ± 5 M⁻¹ s⁻¹ | Rev. | can label | can label | – | – | – |
| C[C@@H]1NC(=O)N[C@@H]1CCCCCC(=O)NCCOCCOCCOCCn1cc(CCCOC(=O)NC(CCCNC(=N)N)P(=O)(Oc2ccc(Cl)cc2)Oc2ccc(Cl)cc2)nn1 (some centres unmarked) [46b] | – | 63 × 10^2 ± 290 M^−1 s^−1 | Rev. | – | – | 950 ± 200 | 70 ± 9 | – |
| C#CCCCOC(=O)NC(CCCNC(=N)N)P(=O)(Oc1ccc(Cl)cc1)Oc1ccc(Cl)cc1 (centres unmarked) [33b] | 280 ± 40 | 11 × 10^2 ± 42 M^−1 s^−1 | reversible inhibition and Rev. | – | – | – | – | 4130 ± 700 |
| C#CCCCOC(=O)NC(Cc1ccc(NC(=N)N)cc1)P(=O)(Oc1ccc(NC(C)=O)cc1)Oc1ccc(NC(C)=O)cc1 (centres unmarked) [35b] | 630 ± 40 | 128 ± 5 M⁻¹ s⁻¹ | Rev. | – | – | – | – | 32700 ± 4000 |
| C#CCCCOC(=O)NC(C1CCN(C(=N)N)CC1)P(=O)(Oc1ccccc1)Oc1ccccc1 (centres unmarked) [41b] | – | 41 × 10^2 ± 38 M^−1 s^−1 | irreversible inhibition; also recorded: Irrev | – | – | – | – | – |
| C[C@@H]1NC(=O)N[C@@H]1CCCCCC(=O)NCCOCCOCCOCCn1cc(CCCOC(=O)NC(CCCNC(=N)N)P(=O)(Oc2ccccc2)Oc2ccccc2)nn1 (some centres unmarked) [45b] | – | 19 ± 2 M⁻¹ s⁻¹ | Rev. | – | – | 9970 ± 1000 | 1140 ± 110 | – |
| C[C@@H]1NC(=O)N[C@@H]1CCCCCC(=O)NCCOCCOCCOCCn1cc(CCCOC(=O)NC(Cc2ccc(NC(=N)N)cc2)P(=O)(Oc2ccc(Cl)cc2)Oc2ccc(Cl)cc2)nn1 (some centres unmarked) [54b] | 60 ± 6 | – | * ^d Rev. | can label | can label | – | – | – |
| C#CCCCOC(=O)NC(Cc1ccc(NC(=N)N)cc1)P(=O)(Oc1ccccc1)Oc1ccccc1 (centres unmarked) [34b] | 4930 ± 510 | 17 ± 1 M⁻¹ s⁻¹ | Rev. | – | – | – | – | 134000 ± 26000 |
| C[C@@H]1NC(=O)N[C@@H]1CCCCCC(=O)NCCOCCOCCOCCn1cc(CCCOC(=O)NC(Cc2ccc(NC(=N)N)cc2)P(=O)(Oc2ccccc2)Oc2ccccc2)nn1 (stereo partly drawn) [50b, 3-(1-(18-((4R,5S)-5-methyl-2-oxoimidazolidin-4-yl)-13-oxo-3,6,9-trioxa-12-azaoctadecyl)-1H-1,2,3-triazol-4-yl)propyl (1-(diphenoxyphosphoryl)-2-(4-guanidinophenyl)ethyl)carbamate trifluoroacetate salt] | 1550 ± 250 | 47 ± 5 M⁻¹ s⁻¹ | Rev. | can label | can label | – | – | – |
| C#CCCCOC(=O)NC(Cc1ccc(NC(=N)N)cc1)P(=O)(Oc1ccc(Cl)cc1)Oc1ccc(Cl)cc1 (centres unmarked) [36b] | 30 ± 2 | 251 ± 16 M⁻¹ s⁻¹ | Rev. | – | – | – | – | 9030 ± 500 |
| C#CCCCOC(=O)NC(CCCNC(=N)N)P(=O)(Oc1ccccc1)Oc1ccccc1 (centres unmarked) [32b] | 450 ± 30 | 64 ± 8 M⁻¹ s⁻¹ | Rev. | – | – | – | – | 22600 ± 5000 |
